Here are results for one compound from ChEMBL document CHEMBL1125853, “An acyliminium ion route to and Anti phe-gly dipeptide mimetics” (Bioorg Med Chem Lett, 1991).

The target in the assay is Angiotensin-converting enzyme (Homo sapiens, UniProt P12821). The assay can be described thus: Inhibitory constant angiotensin converting enzyme.
Chain of Angiotensin-converting enzyme (P12821 whole entry): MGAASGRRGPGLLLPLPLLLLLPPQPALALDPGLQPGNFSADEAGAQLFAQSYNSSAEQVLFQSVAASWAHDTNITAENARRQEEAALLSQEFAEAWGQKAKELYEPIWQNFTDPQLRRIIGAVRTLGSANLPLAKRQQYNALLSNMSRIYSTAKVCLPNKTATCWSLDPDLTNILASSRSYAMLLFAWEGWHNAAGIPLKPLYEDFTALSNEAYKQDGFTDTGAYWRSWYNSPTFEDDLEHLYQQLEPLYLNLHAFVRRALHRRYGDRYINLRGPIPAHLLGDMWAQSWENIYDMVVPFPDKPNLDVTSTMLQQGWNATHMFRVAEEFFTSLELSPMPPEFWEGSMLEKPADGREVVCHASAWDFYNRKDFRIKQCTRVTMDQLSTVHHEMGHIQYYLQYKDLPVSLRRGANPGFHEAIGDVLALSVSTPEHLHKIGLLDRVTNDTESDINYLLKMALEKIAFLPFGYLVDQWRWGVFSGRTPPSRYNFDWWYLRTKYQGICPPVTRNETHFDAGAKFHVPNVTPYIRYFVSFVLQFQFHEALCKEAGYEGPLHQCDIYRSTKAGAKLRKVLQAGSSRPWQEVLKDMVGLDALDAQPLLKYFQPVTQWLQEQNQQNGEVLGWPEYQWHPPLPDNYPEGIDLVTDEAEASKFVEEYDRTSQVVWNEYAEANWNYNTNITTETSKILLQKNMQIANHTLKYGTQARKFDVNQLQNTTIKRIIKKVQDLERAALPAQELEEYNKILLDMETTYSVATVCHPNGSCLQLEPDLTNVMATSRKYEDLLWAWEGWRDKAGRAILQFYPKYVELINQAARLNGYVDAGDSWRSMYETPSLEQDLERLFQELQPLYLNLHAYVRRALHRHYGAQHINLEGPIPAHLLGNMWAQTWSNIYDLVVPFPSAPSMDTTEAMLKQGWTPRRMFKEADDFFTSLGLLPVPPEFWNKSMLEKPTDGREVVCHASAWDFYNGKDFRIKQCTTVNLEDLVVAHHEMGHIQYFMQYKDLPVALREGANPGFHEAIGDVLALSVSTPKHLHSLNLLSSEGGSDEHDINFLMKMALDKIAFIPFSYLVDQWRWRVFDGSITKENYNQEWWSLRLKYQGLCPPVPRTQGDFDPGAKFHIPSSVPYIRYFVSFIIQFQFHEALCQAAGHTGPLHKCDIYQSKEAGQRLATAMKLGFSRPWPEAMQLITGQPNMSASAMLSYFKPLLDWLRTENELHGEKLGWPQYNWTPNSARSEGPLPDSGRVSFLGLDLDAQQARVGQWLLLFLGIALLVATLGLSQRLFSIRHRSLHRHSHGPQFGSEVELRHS

In the case of `O=C(O)CN1Cc2ccccc2CC(N[C@H](CCc2ccccc2)C(=O)O)C1=O` (stereo partly specified), affinity was put at a Ki of 10 nM.
